Source: patent publication US20240009123A1, “MULTI-SUPPLEMENT DELIVERY SYSTEM” (priority 2022, published 2024)

Legend:
[1] = Surface charge (zeta potential) at pH 5; type: physicochemical
Experimental: A facile, green, and powerful strategy was explored to engineer a robust O/W emulsion for co-delivery of water-soluble vitamins (VC, VB6, VB12) and oil-soluble vitamins (VA, VE). The preparation involved the complexation of chitosan and water-soluble vitamins and subsequent formation of chitosan-stabilized O/W emulsions. The approach is illustrated in FIG. 1A. First, the chitosan-vitamin complexes were prepared by mixing solutions of chitosan, anthocyanins, and water-soluble vitamins in deionized water at pH 5. […] The resulting chitosan-vitamin complexes were mixed with canola oil containing oil-soluble vitamins. After homogenization by ultrasonication, the chitosan-stabilized emulsions can form as optically opaque homogenous suspensions. In the ultrasonication process, the chitosan-vitamin complexes tended to coat on the surface of oil droplets, providing a physical layer for stabilization of oil-soluble vitamins. […] The value of the zeta potential (mV) indicates the degree of electrostatic repulsion and is the indicator/predictor of the stability of the dispersed particles. The absolute value difference of positive and negative electrostatic charges, measured in mV, between vitamins and chitosan is not the only factor that keeps the vitamins on the interface.

[2] = Release of vitamins during tea bag steeping process (UV spectrophotometry); type: physicochemical; conditions: for release rate: 4° C., pH 5; for release rate (total amount released): initial 2-minute brewing period, water of pH 5, 4° C., tea bag, spray-dried powder of Example 1
Experimental: To evaluate the release of encapsulated vitamins from the spray-dried powder into water, 30 mg spray-dried powders was placed in the tea bag, which was then immersed in a beaker containing 30 mL of deionized water (pH 5). The beaker was placed in a shaker and shaken slowly in a water bath at 4° C. or 100° C. At appropriate brewing time intervals, an aliquot of solution (0.5 mL) was removed with a pipette for measuring the released vitamins. To determine the amount of water-soluble vitamins, the pH of solution was adjusted to pH 1, followed by filtration (filter pore size 50 μm). […] The release rate was determined by the following equation: release rate (%)=(released vitamins/initially added vitamins)×100.
At appropriate steeping time intervals, an aliquot of solution (0.5 mL) was removed with a pipette for measuring the released vitamins. To determine the amount of water-soluble vitamins, the pH of solution was adjusted to pH 1, followed by filtration (filter pore size 50 μm). The filtrate was then collected and quantified using a UV-spectrophotometer for absorbance. A blank was prepared using deionized water at pH of 1 (adjusted by HCl).
The absorbance of Vitamin B6 was measured at a wavelength of 291 nm. The absorbance of Vitamin B12 was measured at a wavelength of 361 nm.
At appropriate steeping time intervals, an aliquot of solution (0.5 mL) was removed with a pipette for measuring the released vitamins. To determine the amount of oil-soluble vitamins, the pH of the solution was adjusted to a pH of 1, followed by filtration (filter pore size 50 μm). Then, 3 mL organic solvent (chloroform+methanol, 1:1, v/v) was added into the solution to extract the oil-soluble vitamins. After centrifugation at 1000 g for 5 min, the layer of chloroform was removed and quantified using the UV-spectrophotometer for absorbance. A blank was prepared using chloroform.
Using a UV-spectrophotometer, the absorbance of Vitamin A was measured at a wavelength of 326 nm. The absorbance of Vitamin E was measured at a wavelength of 295 nm.

For `CCCCCCCCCCCCCCCC(=O)OC/C=C(C)/C=C/C=C(C)/C=C/C1=C(C)CCCC1(C)C` [VA, retinol palmitate], the charge [1] was “negatively charged” and the release rate ([2]; at 5 min) was 84.0%.
For `O=C1O[C@H]([C@@H](O)CO)C(O)=C1O` [VC, Vitamin C], the charge [1] was “negatively charged” and the “release rate (total amount released)” value [2] was 96.5%.
In the case of Vitamin B6 [VB6], the charge [1] is reported as “negatively charged” and the “release rate (total amount released)” value [2] is reported as 98.8%.
In the case of Vitamin B12 [VB12], the charge [1] is reported as “slightly positively charged” and the “release rate (total amount released)” value [2] is reported as 100%.
In the case of anthocyanin [anthocyanins], the charge [1] is reported as “negatively charged”.
For tocopherols, mixed, FG [VE], the release rate ([2]; at 10 min) was 80.4%.
